Data taken from US8722849B2, “Polypeptides” (Novo Nordisk A/S, priority 2011, dated 2014).
Starred links: 1 amine or outer side, 2 acyl side, 3 side chain; linkers in the order of their positions; H or OH if unused. Positions of bridges follow the written chain, without caps; N, C: chain ends. Residues, ends and D or L forms follow the SMILES beside them. *: point of attachment. C20 diacid = O=C(O)CCCCCCCCCCCCCCCCCCC(=O)*; C18 diacid = O=C(O)CCCCCCCCCCCCCCCCC(=O)*; γGlu = O=C(O)[C@H](CCC(=O)[*:2])N[*:1]

Key:
[1] = Assay (III) ThT fibrillation assay for physical stability; assay type: physicochemical
Procedure, shortened: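 Freshly prepared formulations, pH-adjusted, with 1 μM ThT; four or eight replicates incubated at 37 °C under 960 rpm orbital shaking. Fluorescence (ex 444/em 485 nm) read every 20 min; […]. Peptide concentration measured by RP-HPLC before and after the run.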

[2] = target: T1, rat calcitonin (a) receptor (Rattus norvegicus, UniProt P32214); experiment: Assay (II)b functional cAMP FlashPlate assay, rat calcitonin receptor; assay type: cell-based; settings: Table 11; read-out: CTa receptor rat EC50
T1 construct: expressed in transfected cells; host or cells: BHK tk'ts 13
T1 sequence (P32214 25-479 isoform P32214-2 limits assumed): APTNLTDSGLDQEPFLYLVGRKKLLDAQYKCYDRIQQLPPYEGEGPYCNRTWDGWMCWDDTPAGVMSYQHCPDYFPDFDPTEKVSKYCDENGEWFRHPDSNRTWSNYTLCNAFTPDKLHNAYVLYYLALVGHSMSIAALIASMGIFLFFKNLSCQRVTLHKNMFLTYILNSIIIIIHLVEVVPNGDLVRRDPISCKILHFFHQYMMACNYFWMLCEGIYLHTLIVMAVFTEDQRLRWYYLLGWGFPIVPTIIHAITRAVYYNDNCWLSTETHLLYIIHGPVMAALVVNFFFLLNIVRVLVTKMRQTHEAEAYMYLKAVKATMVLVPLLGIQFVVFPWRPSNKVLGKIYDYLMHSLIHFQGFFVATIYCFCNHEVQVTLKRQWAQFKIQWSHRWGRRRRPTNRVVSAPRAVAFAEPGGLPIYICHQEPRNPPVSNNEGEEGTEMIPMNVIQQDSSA
Procedure, shortened: (§1)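 cAMP accumulation in transiently transfected BHK tk'ts 13 cells, 100.000 cells/well, expressing rat calcitonin(a) receptor or its RAMP3 co-expression form (amylin 3(a)): 30 min stimulation with IBMX, 24 hours post-transfection. Readout by competition of cellular versus radiolabelled cAMP in FlashPlates, scintillation counted after 3 h.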

[3] = target: T2, rat amylin 3(a) receptor (rat calcitonin(a) receptor + rat RAMP3) (Rattus norvegicus, UniProt P32214+Q9JJ73); experiment: Assay (II)b functional cAMP FlashPlate assay, rat amylin receptor; assay type: cell-based; settings: Table 11
T2 construct: expressed in transfected cells; host or cells: BHK tk'ts 13
T2 sequence (P32214 25-479 isoform P32214-2 limits assumed): T1 sequence (P32214 25-479 isoform P32214-2 limits assumed)
T2 sequence (Q9JJ73 23-147 partner): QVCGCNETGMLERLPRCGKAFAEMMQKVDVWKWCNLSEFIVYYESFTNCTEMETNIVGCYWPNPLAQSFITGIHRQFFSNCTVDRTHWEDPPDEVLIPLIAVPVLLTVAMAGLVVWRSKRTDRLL
Procedure, shortened: as §1

ThT pH 4.0 lag time ([1]; Table 8) | ThT pH 4.0 lag time ([1]; Table 9) | ThT pH 4.0 lag time ([1]; ThT fibrillation assay) | ThT pH 4.0 lag time (h) ([1]; ThT fibrillation assay) | EC50 [2] | EC50 [3] | Compound
>45 h | >45 h | >45 h | >45 h | 0.044 nM | 0.075 nM | CC[C@H](C)[C@H](NC(=O)[C@@H]1CCCN1C(=O)CNC(=O)[C@H](Cc1ccccc1)NC(=O)[C@H](CC(N)=O)NC(=O)[C@H](CC(N)=O)NC(=O)[C@H](CO)NC(=O)[C@H](CO)NC(=O)[C@H](Cc1c[nH]cn1)NC(=O)[C@H](Cc1c[nH]cn1)NC(=O)[C@H](CC(C)C)NC(=O)[C@H](Cc1ccccc1)NC(=O)[C@H](CCC(=O)O)NC(=O)[C@H](C)NC(=O)[C@H](CC(C)C)NC(=O)[C@H](CCCNC(=N)N)NC(=O)[C@H](CCC(N)=O)NC(=O)[C@@H](NC(=O)[C@H](C)NC(=O)[C@@H]1CSSC[C@H](NC(=O)[C@H](CCCNC(=N)N)NC(=O)CNC(=O)CC[C@H](NC(=O)CCCCCCCCCCCCCCCCCCC(=O)O)C(=O)O)C(=O)N[C@@H](CC(N)=O)C(=O)N[C@@H]([C@@H](C)O)C(=O)N[C@@H](C)C(=O)N[C@@H]([C@@H](C)O)C(=O)N1)[C@@H](C)O)C(=O)N[C@@H](CC(C)C)C(=O)N1CCC[C@H]1C(=O)N1CCC[C@H]1C(=O)N[C@H](C(=O)N[C@@H](CC(N)=O)C(=O)N[C@H](C(=O)NCC(=O)N[C@@H](CO)C(=O)N[C@@H](CC(N)=O)C(=O)N[C@H](C(=O)N1CCC[C@H]1C(N)=O)[C@@H](C)O)C(C)C)[C@@H](C)O [Example 101, N-alpha-[(S)-4-Carboxy-4-(19-carboxynonadecanoylamino)butyryl]-Gly-[Arg1,Glu14,His17,Pro37]-pramlintide] ({C20 diacid-γGlu}-GRCNTATCATQRLAEFLHHSSNNFGPILPPTNVGSNTP-NH2; disulfide 3-8 (inferred))
– | – | – | 9 h | 0.375 nM | 0.015 nM | CC[C@H](C)[C@H](NC(=O)[C@@H]1CCCN1C(=O)CNC(=O)[C@H](Cc1ccccc1)NC(=O)[C@H](CC(N)=O)NC(=O)[C@H](CC(N)=O)NC(=O)[C@H](CO)NC(=O)[C@H](CO)NC(=O)[C@H](Cc1c[nH]cn1)NC(=O)[C@H](Cc1c[nH]cn1)NC(=O)[C@H](CC(C)C)NC(=O)[C@H](Cc1ccccc1)NC(=O)[C@H](CCC(=O)O)NC(=O)[C@H](C)NC(=O)[C@H](CC(C)C)NC(=O)[C@H](CCCNC(=N)N)NC(=O)[C@H](CCC(N)=O)NC(=O)[C@@H](NC(=O)[C@H](C)NC(=O)[C@@H]1CSSC[C@H](NC(=O)[C@H](Cc2c[nH]cn2)NC(=O)CC[C@H](NC(=O)CCCCCCCCCCCCCCCCC(=O)O)C(=O)O)C(=O)N[C@@H](CC(N)=O)C(=O)N[C@@H]([C@@H](C)O)C(=O)N[C@@H](C)C(=O)N[C@@H]([C@@H](C)O)C(=O)N1)[C@@H](C)O)C(=O)N[C@@H](CC(C)C)C(=O)N1CCC[C@H]1C(=O)N1CCC[C@H]1C(=O)N[C@H](C(=O)N[C@@H](CC(N)=O)C(=O)N[C@H](C(=O)NCC(=O)N[C@@H](CO)C(=O)N[C@@H](CC(N)=O)C(=O)N[C@H](C(=O)N[C@@H](Cc1ccc(O)cc1)C(N)=O)[C@@H](C)O)C(C)C)[C@@H](C)O [Example 48, N-alpha-[(S)-4-Carboxy-4-(17-carboxyheptadecanoylamino)butyryl]-[His1,Glu14,His17]-pramlintide] ({C18 diacid-γGlu}-HCNTATCATQRLAEFLHHSSNNFGPILPPTNVGSNTY-NH2; disulfide 2-7 (inferred))
– | – | – | 2 h | 1.39 nM | 0.476 nM | CC[C@H](C)[C@H](NC(=O)[C@@H]1CCCN1C(=O)CNC(=O)[C@H](Cc1ccccc1)NC(=O)[C@H](CC(N)=O)NC(=O)[C@H](CC(N)=O)NC(=O)[C@H](CO)NC(=O)[C@H](CO)NC(=O)[C@H](Cc1c[nH]cn1)NC(=O)[C@H](Cc1c[nH]cn1)NC(=O)[C@H](CC(C)C)NC(=O)[C@H](Cc1ccccc1)NC(=O)[C@H](CCC(=O)O)NC(=O)[C@H](C)NC(=O)[C@H](CC(C)C)NC(=O)[C@H](CCCNC(=N)N)NC(=O)[C@H](CCC(N)=O)NC(=O)[C@@H](NC(=O)[C@H](C)NC(=O)[C@@H]1CSSC[C@H](NC(=O)[C@H](CCCCN)NC(=O)[C@H](CCC(=O)O)NC(=O)CC[C@H](NC(=O)CCCCCCCCCCCCCCCCCCC(=O)O)C(=O)O)C(=O)N[C@@H](CC(N)=O)C(=O)N[C@@H]([C@@H](C)O)C(=O)N[C@@H](C)C(=O)N[C@@H]([C@@H](C)O)C(=O)N1)[C@@H](C)O)C(=O)N[C@@H](CC(C)C)C(=O)N1CCC[C@H]1C(=O)N1CCC[C@H]1C(=O)N[C@H](C(=O)N[C@@H](CC(N)=O)C(=O)N[C@H](C(=O)NCC(=O)N[C@@H](CO)C(=O)N[C@@H](CC(N)=O)C(=O)N[C@H](C(=O)N[C@@H](Cc1ccc(O)cc1)C(N)=O)[C@@H](C)O)C(C)C)[C@@H](C)O [Example 26, N-alpha-[(S)-4-Carboxy-4-(19-carboxynonadecanoylamino)butyryl]-Glu-[Glu14,His17]-pramlintide] ({C20 diacid-γGlu}-EKCNTATCATQRLAEFLHHSSNNFGPILPPTNVGSNTY-NH2; disulfide 3-8 (inferred); C-terminus assumed)
>45 h | >45 h | >45 h | >45 h | 0.148 nM | 0.023 nM | CC[C@H](C)[C@H](NC(=O)[C@@H]1CCCN1C(=O)CNC(=O)[C@H](Cc1ccccc1)NC(=O)[C@H](CC(N)=O)NC(=O)[C@H](CC(N)=O)NC(=O)[C@H](CO)NC(=O)[C@H](CO)NC(=O)[C@H](Cc1c[nH]cn1)NC(=O)[C@H](Cc1c[nH]cn1)NC(=O)[C@H](CC(C)C)NC(=O)[C@H](Cc1ccccc1)NC(=O)[C@H](CCC(=O)O)NC(=O)[C@H](C)NC(=O)[C@H](CC(C)C)NC(=O)[C@H](CCCNC(=N)N)NC(=O)[C@H](CCC(N)=O)NC(=O)[C@@H](NC(=O)[C@H](C)NC(=O)[C@@H]1CSSC[C@H](NC(=O)[C@H](CCCCN)NC(=O)CC[C@H](NC(=O)CCCCCCCCCCCCCCCCC(=O)O)C(=O)O)C(=O)N[C@@H](CC(N)=O)C(=O)N[C@@H]([C@@H](C)O)C(=O)N[C@@H](C)C(=O)N[C@@H]([C@@H](C)O)C(=O)N1)[C@@H](C)O)C(=O)N[C@@H](CC(C)C)C(=O)N1CCC[C@H]1C(=O)N1CCC[C@H]1C(=O)N[C@H](C(=O)N[C@@H](CC(N)=O)C(=O)N[C@H](C(=O)NCC(=O)N[C@@H](CO)C(=O)N[C@@H](Cc1c[nH]cn1)C(=O)N[C@H](C(=O)N[C@@H](Cc1ccc(O)cc1)C(N)=O)[C@@H](C)O)C(C)C)[C@@H](C)O [Example 59, N-alpha-[(S)-4-Carboxy-4-(17-carboxyheptadecanoylamino)butyryl]-[Glu14,His17,His35]-pramlintide] ({C18 diacid-γGlu}-KCNTATCATQRLAEFLHHSSNNFGPILPPTNVGSHTY-NH2; disulfide 2-7 (inferred))
